Assay results: patent US20240301319A1, “PERFUMING COMPOSITIONS” (FIRMNICH SA, priority 2017, published 2024)

Columns and labels:
[1] = Odor threshold and odor value of perfuming compounds (Tables 4 to 10)
[2] = Volatility of perfuming compounds (Tables 4 to 10), with top/middle/bottom note type; type: physicochemical
Summary of the method: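 Volatility is expressed in μg/l in air. Top notes are 70,000 to 100 μg/l, middle notes 99 to 50 μg/l, and bottom notes 49 to 0.1 μg/l. Compounds are grouped by olfactive family: watery, green, fruity, citrus, sweet, gourmand and woody.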

[3] = Table 6, perfuming compounds having a fruity note
[4] = Table 8, perfuming compounds having a sweet note
[5] = Table 6, perfuming compounds having a fruity note, note type by volatility
[6] = Table 8, perfuming compounds having a sweet note, note type by volatility
[7] = Table 9, perfuming compounds having a gourmand note, note type by volatility
[8] = Table 10, perfuming compounds having a woody note, note type by volatility
[9] = Table 7, citrus note, top, middle or bottom note
[10] = Table 7, citrus note, equals volatility divided by odor threshold
[11] = perfuming compounds having a green note
[12] = note type (Top/Middle/Bottom) by volatility, perfuming compounds having a green note

Molecule | Volatility [2, 3] [μg/l air] | Volatility (μg/l air) ([2]; Table 7, citrus note) | Type [2, 9] | Type [2, 12] | Volatility (μg/l air) [2, 11] [μg/l air] | Odor Threshold [1, 3] [μg/l air] | Odor Value [1, 3] | Type [2, 5] | Odor Threshold (μg/l air) ([1]; Table 7, citrus note) | Odor Threshold (μg/l air) [1, 11] [μg/l air] | other results
CCCC(=O)OC(C)(C)Cc1ccccc1 [1,1-DIMETHYL-2-PHENYLETHYL BUTANOATE] | 34.65 | – | – | – | – | 2.68E−02 | 1.29E+03 | Bottom | – | – | Odor Threshold [1, 4]: 2.68E−02 μg/l air; Odor Value [1, 4]: 1.29E+03; Odor Threshold ([1]; Table 9, gourmand note): 2.68E−02 μg/l air; Volatility [2, 4]: 34.65 μg/l air; Type [2, 6]: Bottom; Volatility ([2]; Table 9, gourmand note): 34.65 μg/l air; Type [2, 7]: Bottom
CC(=O)OC1CCC2C(C)(C)CCCC2(C)C1 (stereo not shown) [5,5,8a-trimethyldecahydro-2-naphthalenyl acetate] | – | – | – | – | – | – | – | – | – | – | Odor Threshold ([1]; Table 10, woody note): 4.19E−04 μg/l air; Type [2, 8]: Bottom; Volatility ([2]; Table 10, woody note): 14.41 μg/l air
O=C/C=C/c1ccccc1 [(E)-3-PHENYL-2-PROPENAL] | – | – | – | – | – | – | – | – | – | – | Odor Threshold ([1]; Table 10, woody note): 1.36E−03 μg/l air; Type [2, 8]: Middle; Volatility ([2]; Table 10, woody note): 70.14 μg/l air
C[C@@H]1CC[C@H]2[C@H](C)C(=O)O[C@@H]2C1 | – | – | – | – | – | – | – | – | – | – | Odor Threshold ([1]; Table 9, gourmand note): 3.46E−05 μg/l air; Volatility ([2]; Table 9, gourmand note): 74.03 μg/l air; Type [2, 7]: Middle
CC(=O)OC(CC(C)C)CC(C)C [1-ISOBUTYL-3-METHYLBUTYL ACETATE] | 5265.61 | – | – | Top | 5265.61 | – | – | TOP (perfuming compounds having a volatility ranging from 70,000 to 100 μg/l in air are referred to as “top notes”) | – | 1.62E+00 | –
CCC(CC(C)CC)=NO (stereo not shown) [5-METHYL-3-HEPTANONE OXIME] | 128.04 | – | – | Top | 128.04 | 8.80E−03 | 1.45E+04 | TOP (perfuming compounds having a volatility ranging from 70,000 to 100 μg/l in air are referred to as “top notes”) | – | 8.80E−03 | Odor Threshold [1, 4]: 8.80E−03 μg/l air; Odor Value [1, 4]: 1.45E+04; Volatility [2, 4]: 128.04 μg/l air; Type [2, 6]: Top
CCCC(O)CC[C@@H]1[C@@H](C)CCCC1(C)C (mixture of isomers) | – | – | – | – | – | – | – | – | – | – | Odor Threshold ([1]; Table 10, woody note): 5.92E−04 μg/l air; Type [2, 8]: Bottom; Volatility ([2]; Table 10, woody note): 2.34 μg/l air

Continued, in another order:

Volatility [2, 3] [μg/l air] | Volatility (μg/l air) ([2]; Table 7, citrus note) | Type [2, 9] | Type [2, 12] | Volatility (μg/l air) [2, 11] [μg/l air] | Molecule | Odor Threshold [1, 3] [μg/l air] | Odor Value [1, 3] | Type [2, 5] | Odor Threshold (μg/l air) ([1]; Table 7, citrus note) | Odor Threshold (μg/l air) [1, 11] [μg/l air] | other results
– | 89.88 | Middle | – | – | CITRONELLOL (A) + GERANIOL (B) | – | – | – | 7.69E−04 | – | –
1.85 | 1.85 | Bottom | – | – | C/C=C/c1ccc(OC(C)=O)c(OC)c1 [(E)-2-METHOXY-4-(1-PROPENYL)PHENYL ACETATE] | 4.08E−07 | 4.54E+06 | Bottom | 4.08E−07 | – | Odor Value [1, 10]: 4.54E+06
1.15 | – | – | Bottom | 1.15 | CCCCCC/C(C=O)=C\c1ccccc1 [(2E)-2-benzylideneoctanal] | 1.91E−03 | 6.01E+02 | Bottom | – | 1.91E−03 | –
– | 2.12 | Bottom | – | – | CCCCC[C@H]1C(=O)CC[C@@H]1CC(=O)OC (racemic) [methyl 2-((1RS,2RS)-3-oxo-2-pentylcyclopentyl)acetate] | – | – | – | 5.77E−04 | – | Odor Value [1, 10]: 3.67E+03
– | 202.66 | Top | – | – | (Z)-3,7-DIMETHYL-2,6-OCTADIENAL (A) + (E)-3,7-DIMETHYL-2,6-OCTADIENAL (B) | – | – | – | 4.12E−03 | – | Odor Value [1, 10]: 4.92E+04
1661.18 | – | – | Top | 1661.18 | CCCCCCOC(=O)C(C)C [hexyl 2-methylpropanoate] | – | – | TOP (perfuming compounds having a volatility ranging from 70,000 to 100 μg/l in air are referred to as “top notes”) | – | 7.15E−01 | –
